Experiments:
DDR2 = biological target: T1, DDR2 (Homo sapiens, UniProt Q16832); assay: DDR2 LanthaScreen Europium Kinase Binding assay; conditions: binding affinity; IC50 converted in Ki using Cheng-Prusoff; read-out: Ki DDR2
T1 sequence (Q16832 22-855): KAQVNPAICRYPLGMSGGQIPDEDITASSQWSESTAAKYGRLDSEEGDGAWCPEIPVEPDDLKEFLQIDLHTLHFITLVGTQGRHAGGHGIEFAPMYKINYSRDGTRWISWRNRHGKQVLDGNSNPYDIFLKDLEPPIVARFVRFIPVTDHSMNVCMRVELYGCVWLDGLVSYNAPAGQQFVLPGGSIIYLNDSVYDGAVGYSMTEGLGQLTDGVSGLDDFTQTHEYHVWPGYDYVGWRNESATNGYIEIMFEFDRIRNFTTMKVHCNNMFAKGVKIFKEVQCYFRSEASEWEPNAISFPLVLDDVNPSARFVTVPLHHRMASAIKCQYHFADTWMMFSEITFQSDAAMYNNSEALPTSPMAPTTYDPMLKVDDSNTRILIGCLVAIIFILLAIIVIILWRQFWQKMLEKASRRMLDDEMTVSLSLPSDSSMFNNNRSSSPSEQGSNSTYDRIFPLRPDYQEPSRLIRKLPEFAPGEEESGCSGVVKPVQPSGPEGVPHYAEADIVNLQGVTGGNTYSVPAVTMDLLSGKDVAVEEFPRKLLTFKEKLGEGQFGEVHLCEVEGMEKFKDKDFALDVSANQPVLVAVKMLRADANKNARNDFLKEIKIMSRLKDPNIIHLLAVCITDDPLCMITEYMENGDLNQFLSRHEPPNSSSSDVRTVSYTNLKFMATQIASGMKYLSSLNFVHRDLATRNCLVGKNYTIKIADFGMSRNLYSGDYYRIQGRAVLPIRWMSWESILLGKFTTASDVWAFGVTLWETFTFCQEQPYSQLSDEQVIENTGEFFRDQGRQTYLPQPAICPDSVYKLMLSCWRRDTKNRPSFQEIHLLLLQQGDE
Experimental: (§1) DDR1 and DDR2 binding assays were performed using Life Technologies LanthaScreen™ Europium Kinase Binding assay. The compounds were incubated with 5 nM DDR1 (Carna Biosciences) or 5 nM DDR2 (Life Technologies) for 1 hour at room temperature in white 384-well OptiPlate (PerkinElmer), containing 20 nM or 10 nM Kinase Tracer 178 respectively and 2 nM Europium labelled anti-GST antibody (Life Technologies) in assay buffer (50 mM HEPES pH 7.5, 10 mM MgCI2, 1 mM EGTA and 0.01% BRIJ35). The ratio of fluorescence emission 665 nm/615 nm after excitation at 340 nm was obtained using the Tecan Spark 20M plate reader. IC50 values were determined in GraphPad Prism 7.0 software, using 4 parameter model: log(inhibitor) vs. response. IC50 values were converted in Ki using the Cheng-Prusoff equation (Ki=IC50/(1+[Tracer]/Kd).

DDR1 [1] = biological target: T2, DDR1 (Homo sapiens, UniProt Q08345); assay: DDR1 LanthaScreen Europium Kinase Binding assay; conditions: binding affinity; IC50 converted in Ki using Cheng-Prusoff; read-out: Ki DDR1
Experimental: as §1

DDR1 [2] = biological target: T2, DDR1; assay: DDR1 cell based assay (PathHunter U2OS DDR1, collagen II stimulation); conditions: U2OS-DDR1 cells, bovine Type II Collagen stimulation
Experimental: The inhibition of DDR1 receptor activation by compounds was evaluated by PathHunter® U2OS DDR1 assay (Eurofins DiscoverX), according to the manufacturer's instructions. Briefly, U2OS-DDR1 cells were seeded in white 384-well plates at a density of 5000 cells/well and incubated for 2 hours at 37° C. and 5% CO2. Cells were then treated with compounds at different concentrations and incubated for 30 minutes, before stimulation with bovine Type II Collagen 20 μg/ml and incubation overnight at 37° C. and 5% CO2. PathHunter Detection Reagents were prepared according to the protocol provided by DiscoverX and 20 μl/well of this mix were added to each well. After incubating the plates for 1 hour at room temperature in the dark, luminescence signal was acquired with a plate reader. Raw data were normalized to vehicle control (0% for normalization) and positive control (100% for normalization; cells treated with 20 μg/ml collagen II) and IC50 parameters were calculated in GraphPad Prism 8.0 software, using sigmoidal dose-response curve fitting with variable slope.

T2 sequence (Q08345 19-913): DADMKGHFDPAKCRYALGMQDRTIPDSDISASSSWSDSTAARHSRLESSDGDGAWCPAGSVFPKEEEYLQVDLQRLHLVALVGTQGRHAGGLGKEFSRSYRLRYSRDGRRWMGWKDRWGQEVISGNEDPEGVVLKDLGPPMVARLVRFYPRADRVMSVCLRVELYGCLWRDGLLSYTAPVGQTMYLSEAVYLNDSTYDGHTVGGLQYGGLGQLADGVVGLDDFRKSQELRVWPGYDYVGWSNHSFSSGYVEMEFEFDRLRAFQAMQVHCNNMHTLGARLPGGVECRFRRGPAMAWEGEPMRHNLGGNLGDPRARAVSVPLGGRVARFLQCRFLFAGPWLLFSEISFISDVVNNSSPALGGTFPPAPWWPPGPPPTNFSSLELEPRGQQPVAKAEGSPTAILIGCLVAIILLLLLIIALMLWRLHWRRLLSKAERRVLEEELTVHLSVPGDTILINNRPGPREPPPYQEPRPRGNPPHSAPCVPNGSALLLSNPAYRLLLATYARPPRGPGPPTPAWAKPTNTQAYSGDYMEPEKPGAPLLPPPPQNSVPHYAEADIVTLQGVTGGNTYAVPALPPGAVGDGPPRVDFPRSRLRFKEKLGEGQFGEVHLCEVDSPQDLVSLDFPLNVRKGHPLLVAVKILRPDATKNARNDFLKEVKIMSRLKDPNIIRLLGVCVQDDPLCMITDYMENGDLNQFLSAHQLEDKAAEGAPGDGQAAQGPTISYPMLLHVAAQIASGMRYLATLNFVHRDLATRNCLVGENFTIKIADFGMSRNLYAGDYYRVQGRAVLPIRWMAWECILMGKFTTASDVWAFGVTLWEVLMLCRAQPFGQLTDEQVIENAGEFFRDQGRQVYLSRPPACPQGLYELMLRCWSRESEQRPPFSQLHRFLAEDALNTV

SMILES | Ki (DDR2) | Ki (DDR1 [1]) | IC50 (DDR1 [2])
CC1CN(Cc2cnc3[nH]ccc3c2)c2cc(C(=O)Nc3cccc(C(F)(F)F)c3)ccc21 (stereo not drawn) [Example 32, 1-((1H-pyrrolo[2,3-b]pyridin-5-yl)methyl)-3-methyl-N-(3-(trifluoromethyl)phenyl)indoline-6-carboxamide] | 25 to 50 nM | 25 to 50 nM | < 25 nM
Cc1cn(-c2cc(NC(=O)c3ccc4c(c3)N(Cc3cnc5[nH]ncc5c3)CC4C)cc(C(F)(F)F)c2)cn1 (stereo not drawn) [Example 24, 1-((1H-pyrazolo[3,4-b]pyridin-5-yl)methyl)-3-methyl-N-(3-(4-methyl-1H-imidazol-1-yl)-5-(trifluoromethyl)phenyl)indoline-6-carboxamide] | 25 to 50 nM | 25 to 50 nM | < 25 nM
O=C(Nc1cc(F)cc(C(F)(F)F)c1)c1ccc2c(c1)N(Cc1ccc3[nH]cnc3c1)CC2 [Example 62, 1-((1H-benzo[d]imidazol-5-yl)methyl)-N-(3-fluoro-5-(trifluoromethyl)phenyl)indoline-6-carboxamide] | 50 to 80 nM | 25 to 50 nM | 50 to 80 nM
COc1ccc(NC(=O)c2ccc3c(c2)N(Cc2cnc4cnccn24)CC3)cc1C(F)(F)F [Example 46, 1-(imidazo[1,2-a]pyrazin-3-ylmethyl)-N-(4-methoxy-3-(trifluoromethyl)phenyl)indoline-6-carboxamide] | 25 to 50 nM | < 25 nM | 50 to 80 nM
O=C(Nc1cccc(C(F)(F)F)c1)c1ccc2c(c1)N(Cc1cnc3ccccn13)CC2 [Example 57, 1-(imidazo[1,2-a]pyridin-3-ylmethyl)-N-(3-(trifluoromethyl)phenyl)indoline-6-carboxamide] | 50 to 80 nM | 25 to 50 nM | 25 to 50 nM

Other lines, results leading:

Ki (DDR2) | Ki (DDR1 [1]) | IC50 (DDR1 [2]) | SMILES
< 25 nM | < 25 nM | 25 to 50 nM | CN(C)Cc1ccc(NC(=O)c2ccc3c(c2)N(Cc2cnc4cnccn24)CC3)cc1C(F)(F)F [Example 48, N-(4-((dimethylamino)methyl)-3-(trifluoromethyl)phenyl)-1-(imidazo[1,2-a]pyrazin-3-ylmethyl)indoline-6-carboxamide]
< 25 nM | < 25 nM | 25 to 50 nM | CN(C)Cc1cc(NC(=O)c2ccc3c(c2)N(Cc2cnc4cnccn24)CC3)cc(C(F)(F)F)c1 [Example 51, N-(3-((dimethylamino)methyl)-5-(trifluoromethyl)phenyl)-1-(imidazo[1,2-a]pyrazin-3-ylmethyl)indoline-6-carboxamide]
< 25 nM | < 25 nM | 25 to 50 nM | CN1CCN(Cc2cc(NC(=O)c3ccc4c(c3)N(C(=O)c3cnc5ccccn35)CC4)cc(C(F)(F)F)c2)CC1 [Example 14, 1-(imidazo[1,2-a]pyridine-3-carbonyl)-N-(3-((4-methylpiperazin-1-yl)methyl)-5-(trifluoromethyl)phenyl)indoline-6-carboxamide]
< 25 nM | < 25 nM | < 25 nM | Cc1n[nH]c2ncc(CN3CCc4ccc(C(=O)Nc5cc(CN6CCN(C)CC6)nc(C(F)(F)F)c5)cc43)cc12 [Example 81, 1-((3-methyl-1H-pyrazolo[3,4-b]pyridin-5-yl)methyl)-N-(2-((4-methylpiperazin-1-yl)methyl)-6-(trifluoromethyl)pyridin-4-yl)indoline-6-carboxamide]
< 25 nM | < 25 nM | 25 to 50 nM | Cc1cn(-c2cc(C(=O)Nc3ccc4c(c3)N(C(=O)c3cnc5cnccn35)CC4)cc(C(F)(F)F)c2)cn1 [Example 20, N-(1-(imidazo[1,2-a]pyrazine-3-carbonyl)indolin-6-yl)-3-(4-methyl-1H-imidazol-1-yl)-5-(trifluoromethyl)benzamide]
< 25 nM | < 25 nM | 25 to 50 nM | CN1CCN(Cc2cc(C(=O)Nc3ccc4c(c3)N(Cc3ccc5ncsc5c3)CC4)cc(C(F)(F)F)c2)CC1 [Example 17, N-(1-(benzo[d]thiazol-6-ylmethyl)indolin-6-yl)-3-((4-methylpiperazin-1-yl)methyl)-5-(trifluoromethyl)benzamide]

From patent US20240217967A1, “INDOLINE DERIVATIVES AS DDRS INHIBITORS” (CHIESI FARMACEUTICI S.P.A., priority 2021, published 2024)
